Test results as given in publication PMC8764113 (Nature Communications, 2022).
Read-outs that look alike come from different tables or passages of the source.

Assays:
[1] = test system: PECPS; assay: Standard PECPS enzyme reaction, acceptance of starter-CoA; assay type: biochemical, Aquilaria sinensis; conditions: condensation with 4-hydroxyphenylpropionyl-β-diketide acid
Experimental: The standard reaction mixture contained 26 nmol of starter-CoA (4-hydroxyphenylpropionyl-CoA/benzoyl-CoA/phenylpropionyl-CoA/2-hydroxybenzoyl-CoA/3-hydroxybenzoyl-CoA/4-hydroxybenzoyl-CoA), 29 nmol of malonyl-CoA/benzoyl-β-diketide acid/4-hydroxyphenylpropionyl-β-diketide acid (note: before β-diketide acids were added to the reaction buffer, they were first dissolved in dimethyl sulfoxide to a final concentration of 2.9 mM), and 0.4 nmol of the purified recombinant enzyme, in 100 mM KPB (pH 7.5) for a final volume of 500 μL. Incubations were performed at 37 °C for 12 h and terminated by the addition of 20 μL of 20% HCl. The reaction solution was then extracted three times with 800 μL of ethyl acetate. The organic layers were combined, evaporated to dryness with nitrogen, and dissolved in 50 μL of MeOH for LCMS-IT-TOF (Shimadzu, Japan) analysis. The HPLC was equipped with an Agilent Eclipse XDB C18 column (250 × 4.6 mm I.D., 5 μm) and eluted at a flow rate of 1.0 mL/min. For the standard assay, gradient elution was performed with H2O and acetonitrile: 0–10 min, 30% acetonitrile; 10–20 min, 30–60% acetonitrile; 20–25 min, 60–70% acetonitrile; 25–30 min, 70–80% acetonitrile; 30–35 min, 80–100% acetonitrile; 35–40 min, 100% acetonitrile.

[2] = test system: NaCl-stressed A. sinensis cells; assay: Substrate feeding to NaCl-stressed A. sinensis suspension cells, LC-MS; assay type: cell-based, Aquilaria sinensis; conditions: NaCl-stressed A. sinensis cells fed with substrate
Experimental: To verify the aforementioned hypothesis that diarylpentanoid is the common precursor of PECs, substrate-feeding experiments were performed. First, a putative innate-substrate, 5-(4-hydroxyphenyl)-1-phenylpentane-1,3-dione (2), was fed to NaCl-stressed A. sinensis cells, and its metabolites were carefully analyzed by LC–MS. […] Next, the fluorine-containing nonphysiological substrate 5-(4-F-phenyl)-1-phenylpentane-1,3-dione (F-2) was fed to NaCl-stressed A. sinensis cells. As a result, 10 fluorinated PECs (C01–C10) were successfully obtained by LC–MS guided separation and purification (Fig. 2b and Supplementary Fig. 8), and the structures of C01–C06 were unequivocally determined by extensive spectroscopic techniques, including ^1H-NMR, ^13C-NMR and HRESI-MS (Supplementary Figs. 9–14 and Supplementary Tables 2 and 3). Unfortunately, attempts to elucidate the structures of compounds C07–C10 by NMR techniques were complicated by their small yields. […]
Robustly growing suspension cells (200 mL × 10) were treated with NaCl (final concentration 150 mM) and immediately fed the fluorine-labeled substrate F-2 (20 mg × 10). […] Fluorinated PECs could be detected from the crude residue by LC–MS (Supplementary Fig. 8). […]

[3] = test system: wild type N. benthamiana leaves; assay: Infiltration of C6-C5-C6 substrates into wild type N. benthamiana leaves, LC-MS; assay type: in vivo, Nicotiana benthamiana
[4] = biological target: 2-(2-phenylethyl)chromone precursor synthase (PECPS), wild type, recombinant (Aquilaria sinensis); assay: SEC; purified recombinant PECPS; approximately 86 kDa against a calculated 43 kDa for the monomer (Supplementary Fig. 4b); column and buffer of this run not told
[5] = test system: PECPS protein expression in A. sinensis calli; conditions: 150 mM NaCl-treated calli
Experimental: GAPDH was used as internal reference. d Western blot quantification of the relative expression levels of PECPS by ImageJ and normalization to the protein levels of GAPDH. Data represent the mean ± SD (n = 3). Statistical analysis was performed with unpaired two-tailed Student’s t-tests. Significance is shown with asterisks: ****p < 0.0001, ***p < 0.001, **p < 0.01. Exact p-values and source data are provided in the source data file. Total protein was extracted from 100 mg of calli using Plant Total Protein Extraction Reagent (Invent, USA) according to the manufacturer’s instructions. The protein expression levels of PECPS were analyzed by Western blotting with an anti-PECPS antibody prepared in rabbits.

[6] = test system: PECPS expression in A. sinensis calli; conditions: NaCl-treated calli
Experimental: Considering that PECs contain a phenylethyl moiety, 4-hydroxyphenylpropionyl-CoA, rather than p-coumaroyl-CoA, was deliberately selected as the starter substrate for the reaction with malonyl-CoA, a canonical chain extender for PKSs, and the recombinant PECPS. […] The construction of a C6–C5–C6 scaffold by coincubation of benzoyl-CoA, malonyl-CoA, and 4-hydroxyphenylpropionyl-CoA was attempted.

[7] = biological target: PECPS F340W (Aquilaria sinensis, UniProt A0A385MEG6, F340W); assay: ITC binding to PECPS F340W mutant
Sequence of PECPS F340W (A0A385MEG6 entry or part of it F340W): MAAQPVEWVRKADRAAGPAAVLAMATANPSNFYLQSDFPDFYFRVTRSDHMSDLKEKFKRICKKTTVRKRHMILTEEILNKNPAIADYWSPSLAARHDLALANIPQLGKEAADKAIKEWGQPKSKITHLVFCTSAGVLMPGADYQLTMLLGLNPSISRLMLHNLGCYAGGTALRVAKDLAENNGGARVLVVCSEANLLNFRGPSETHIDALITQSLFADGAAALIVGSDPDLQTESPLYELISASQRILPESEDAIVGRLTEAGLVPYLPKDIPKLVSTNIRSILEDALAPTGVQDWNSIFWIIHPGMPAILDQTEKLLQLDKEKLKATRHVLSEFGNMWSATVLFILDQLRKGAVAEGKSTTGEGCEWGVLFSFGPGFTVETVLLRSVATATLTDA
Experimental: (§1) ITC measurements of affinity (KD), stoichiometry (n) and apparent enthalpy change (ΔH°) were obtained using a Nano LV ITC calorimeter (TA Instruments). Samples for cell and injectant solutions were prepared in the same buffer (100 mM KPB, pH 7.5). All experiments were conducted at 37 °C with a stirring speed of 240 rpm and a sequence of 20 injections of 2.5 μL and 380 s delays between succeeding injections. The sample cell was filled with 47–85 μM protein solution (300 μl), while 1.09 mM 4-hydroxyphenylpropionyl-CoA (or 1.15 mM benzoyl-CoA) solution was placed in the syringe. The resulting data were processed with the standard NanoAnalyze software package (version 3.11.0), assuming the model of one type of binding site with an apparent stoichiometry close to 1:1. The first injection resulting in a heat change was disregarded in the later analysis. Titration experiments were performed in triplicate to show reproducibility. Control experiments confirmed that the heats of dilution caused by the reactant being titrated into buffer and the buffer into protein solution were negligible. The heats of dilution for the sample in the cell were subtracted from the final trace before integration with respect to time. The thermodynamic data obtained from the traces were averaged across three runs, and a standard deviation was calculated. Representative ITC thermograms and isotherm plots for experiments can be found in Supplementary Fig. 35.
(§2) Plasmids expressing the PECPS mutants (A210E, F340W, N199L, and N199F) were generated by the Fast Mutagenesis System ([…] BIOTECH) according to the manufacturer’s instructions, using designed primers (Supplementary Table 5). The mutant enzymes were expressed, extracted, and purified by the same procedure as that for the wild type PECPS, and used in the enzyme assay and for crystallization.

[8] = biological target: PECPS A210E (Aquilaria sinensis, UniProt A0A385MEG6, A210E); assay: ITC binding to PECPS A210E mutant
Sequence of PECPS A210E (A0A385MEG6 entry or part of it A210E): as the sequence (A0A385MEG6 entry or part of it F340W) above, with A210E, W340F counted along it
Experimental: as §1, §2

[9] = biological target: wild type PECPS (Aquilaria sinensis, UniProt A0A385MEG6); assay: ITC binding to wild type PECPS; conditions: mean ± SD (n = 3)
Sequence of wild type PECPS (A0A385MEG6 entry or part of it): as the sequence (A0A385MEG6 entry or part of it F340W) above, with W340F counted along it
Experimental: as §1

[10] = biological target: PECPS N199F (Aquilaria sinensis, UniProt A0A385MEG6, N199F); assay: ITC binding to PECPS N199F mutant
Sequence of PECPS N199F (A0A385MEG6 entry or part of it N199F): as the sequence (A0A385MEG6 entry or part of it F340W) above, with N199F, W340F counted along it
Experimental: as §1, with “Representative ITC thermograms and isotherm plots for experiments can be found in Supplementary Fig. 35.” left out

[11] = biological target: PECPS N199L (Aquilaria sinensis, UniProt A0A385MEG6, N199L); assay: ITC binding to PECPS N199L mutant
Sequence of PECPS N199L (A0A385MEG6 entry or part of it N199L): as the sequence (A0A385MEG6 entry or part of it F340W) above, with N199L, W340F counted along it
Experimental: as §1, §2

[12] = Non-enzymatic conversion of oxidoagarochromone C in aqueous methanol, HPLC; assay type: physicochemical; conditions: methanol aqueous solution, room temperature
Experimental: Figure 19. […]
HPLC chromatograms were recorded on an Agilent ZORBAXSB C18 column (250 mm × 4.6 mm, I.D., 5 μm) eluted with H2O and acetonitrile in an isocratic mode (0–30 min, 30% acetonitrile; flow rate 1.0 mL/min). Oxidoagarochromone C (S) was dissolved in 50% aqueous methanol and kept at room temperature. ATC-type PECs (1–5) converted from the substrate (S) via the non-enzymatic opening of the epoxy rings were readily apparent at 12 h and 36 h. Given that the structures of compounds 1-5 were tentatively identified by HRESI MS, the presence of methyl groups in compounds 2 and 5 is also possible on other hydroxyl groups formed by the opening of the epoxy rings, and the structures of 3 and 4 may be […]

CC(C)(COP(=O)(O)OP(=O)(O)OC[C@H]1O[C@@H](n2cnc3c(N)ncnc32)[C@H](O)[C@@H]1OP(=O)(O)O)[C@@H](O)C(=O)NCCC(=O)NCCSC(=O)c1ccc(O)cc1 [4-hydroxybenzoyl-CoA]
acceptance as starter by PECPS to produce the C6–C5–C6 scaffold [1]: could accept

O=C(CCc1ccc(O)cc1)CC(=O)c1ccccc1 [compound 2, 5-(4-hydroxyphenyl)-1-phenylpentane-1,3-dione]
accumulation of PECs (P1–P5) in substrate-fed cells [2]: visibly increased
biotransformation in wild type N. benthamiana leaves [3]: converted to PECs

2-(2-phenylethyl)chromone precursor synthase (PECPS), wild type, recombinant (enzyme)
stoichiometry N [4]: 2

CC(C)(COP(=O)(O)OP(=O)(O)OC[C@H]1O[C@@H](n2cnc3c(N)ncnc32)[C@H](O)[C@@H]1OP(=O)(O)O)[C@@H](O)C(=O)NCCC(=O)NCCSC(=O)c1ccccc1O [2-hydroxybenzoyl-CoA]
acceptance as starter by PECPS to produce the C6–C5–C6 scaffold [1]: not accepted

[Cl-].[Na+] [NaCl]
Relative expression level of PECPS protein (PECPS/GAPDH), Mean ([5]; 0 h): 0.2667
Relative expression level of PECPS protein (PECPS/GAPDH), Mean ([5]; 24 h): 0.4551
Relative expression level of PECPS protein (PECPS/GAPDH), Mean ([5]; 48 h): 1.257
Relative expression level of PECPS protein (PECPS/GAPDH), Mean ([5]; 72 h): 1.846
Relative expression level of PECPS protein (PECPS/GAPDH), Mean ([5]; 96 h): 1.18
Relative expression level of PECPS (qRT-PCR), Mean ([6]; 0 h): 0.3162
Relative expression level of PECPS (qRT-PCR), Mean ([6]; 24 h): 0.7432
Relative expression level of PECPS (qRT-PCR), Mean ([6]; 48 h): 2.33
Relative expression level of PECPS (qRT-PCR), Mean ([6]; 72 h): 6.264
Relative expression level of PECPS (qRT-PCR), Mean ([6]; 96 h): 1.556

CC(C)(COP(=O)(O)OP(=O)(O)OC[C@H]1O[C@@H](n2cnc3c(N)ncnc32)[C@H](O)[C@@H]1OP(=O)(O)O)[C@@H](O)C(=O)NCCC(=O)NCCSC(=O)CCc1ccc(O)cc1 [4-hydroxyphenylpropionyl-CoA]
Kd [7]: 12.4 ± 2.07 µM
-TΔS ([7]; ITC, mean ± SD (n = 3)): -5.251 ± 0.28 kcal/mol
Ka ([7]; ITC, mean ± SD (n = 3)): 82.07 ± 12.96 mM⁻¹
n (stoichiometry) ([7]; ITC, mean ± SD (n = 3)): 0.91±0.06
ΔG ([7]; ITC, mean ± SD (n = 3)): -6.969 ± 0.1 kcal/mol
ΔH ([7]; ITC, mean ± SD (n = 3)): -1.72 ± 0.177 kcal/mol
ΔS ([7]; ITC, mean ± SD (n = 3)): 70.83 ± 3.75 J/molꞏK
Kd [8]: 40.1 ± 4.52 µM
binding affinity, times lower than that of the wild-type ([8]; A210E vs wild type PECPS, ITC): 2.1 times
-TΔS ([8]; ITC, mean ± SD (n = 3)): -2.483 ± 0.397 kcal/mol
Ka ([8]; ITC, mean ± SD (n = 3)): 25.12 ± 2.98 mM⁻¹
n (stoichiometry) ([8]; ITC, mean ± SD (n = 3)): 0.99±0.02
ΔG ([8]; ITC, mean ± SD (n = 3)): -6.243 ± 0.0717 kcal/mol
ΔH ([8]; ITC, mean ± SD (n = 3)): -3.76 ± 0.323 kcal/mol
ΔS ([8]; ITC, mean ± SD (n = 3)): 33.49 ± 5.34 J/molꞏK
-TΔS ([9]; ITC): -3.748 ± 0.464 kcal/mol
n (stoichiometry) ([9]; ITC): 1.10±0.12
ΔH ([9]; ITC): -2.968 ± 0.425 kcal/mol
ΔS ([9]; ITC): 50.56 ± 6.28 J/molꞏK
Ka ([9]; ITC, listed as 4-hydorxyphenylpropionyl-CoA): 54.06 ± 4.14 mM⁻¹
Kd ([9]; Supplementary Table 4, ITC): 18.6 ± 1.37 µM
Kd [10]: ~1000 µM
Kd [11]: 120 ± 10.8 µM
Ka ([11]; ITC, mean ± SD (n = 3)): 8.35 ± 0.71 mM⁻¹
n (stoichiometry) ([11]; ITC, mean ± SD (n = 3)): 0.87±0.06
ΔG ([11]; ITC, mean ± SD (n = 3)): -5.564 ± 0.055 kcal/mol
ΔH ([11]; ITC, mean ± SD (n = 3)): -4.708 ± 0.402 kcal/mol
ΔS ([11]; ITC, mean ± SD (n = 3)): 11.50 ± 4.86 J/molꞏK
binding affinity, times weaker than that of wild type PECPS ([11]; N199L vs wild type PECPS, ITC): 6.5 times

CC(C)(COP(=O)(O)OP(=O)(O)OC[C@H]1O[C@@H](n2cnc3c(N)ncnc32)[C@H](O)[C@@H]1OP(=O)(O)O)[C@@H](O)C(=O)NCCC(=O)NCCSC(=O)c1cccc(O)c1 [3-hydroxybenzoyl-CoA]
acceptance as starter by PECPS to produce the C6–C5–C6 scaffold [1]: could accept

CC(C)(COP(=O)(O)OP(=O)(O)OC[C@H]1O[C@@H](n2cnc3c(N)ncnc32)[C@H](O)[C@@H]1OP(=O)(O)O)[C@@H](O)C(=O)NCCC(=O)NCCSC(=O)c1ccccc1 [benzoyl-CoA]
Kd ([9]; ITC, 100 mM KPB pH 7.5, 37 °C): ~1000 µM

O=C(CCc1ccccc1)CC(=O)c1ccccc1 [1,5-diphenylpentane-1,3-dione]
biotransformation in wild type N. benthamiana leaves [3]: converted to PECs

oxidoagarochromone C
products from the opening of the epoxy ring (non-enzymatic conversion to ATC-type PECs) [12]: readily detected
